Test results reported in patent US20050281888A1, “Nutritional supplement for infants” (priority 2004, published 2005).

Tested on: blood lymphocytes
Test: Zinc dose response: lymphocyte response to mitogen PHA in supplemented infants
Assay type: in vivo, infants (human), age 4-36 months
Conditions: for Lymphocyte response to PHA (stimulation index): infants age 4-36 months
Procedure: The basic concept underlying the assessment of the most optimum nutrient amounts for a given age group uses the principle of “dose-response graphs”. At least four groups of individuals were provided with various amounts of a given nutrient and their immune responses were measured using established and accepted techniques. The amount of a nutrient that gave the best response was considered the optimum amount. Dose response graphs were determined for all vitamins and trace elements considered essential for human health, particularly immunity.
Data for the dose response chart for zinc in a group of 4 to 36 month old infants is shown in FIG. 1, with the total amount of zinc taken is shown for each group. To determine the magnitude of immune response, an aliquot of blood was withdrawn from each subject in the study, blood lymphocytes were separated, washed and mixed with the mitogen phytohemagglutinin (PHA) in previously determined optimum amount. The optimum amount of PHA used in the experiments was predetermined by a set of dose response graphs using lymphocytes of a healthy donor and four different concentrations of PHA. After culture in a sterile environment for 72 hours, the cells were washed and mixed with radioactive thymidine. The same steps were undertaken in a control sample in which only the culture medium was used, not PHA. The cells were washed and radioactivity determined.
Dietary intake of zinc was calculated based on three 24-hour recalls and by the food frequency questionnaire methods.

[Zn] [zinc]
Immune response, conclusion in words (3 mg zinc intake in addition to zinc from a balanced diet): best immune response
Lymphocyte response to PHA (stimulation index) (supplemental zinc 3 mg): 58
Lymphocyte response to PHA (stimulation index) (supplemental zinc 6 mg): 41
Lymphocyte response to PHA (stimulation index) (supplemental zinc 9 mg): 32
